# Experimental data taken from patent EP4635500A1, “THERAPEUTIC AGENT FOR BACTERIAL INFECTION” (Sumitomo Pharma Co., Ltd., priority 2022, dated 2024).
# Where two headings read alike, the source gives them in different places.
# Test system: Enterobacterales
# Test: MIC, broth microdilution, CDC/FDA Antibiotic Resistance Isolate Bank (Example 7, Tables 8, 11, 12)
# Type: cell-based
# Details: for MIC: read-out: MIC
compound,measurement,setting,value
"C[C@H]1COc2c(N3CCN(C)CC3)c(F)cc3c(=O)c(C(=O)O)cn1c23 [Levofloxacin, levofloxacin]",MIC,"Klebsiella aerogenes, Enterobacter aerogenes, KUB No. 5658, AR Bank # 161",0.12 µg/mL
same,MIC,"Klebsiella aerogenes, Enterobacter aerogenes, KUB No. 5777, AR Bank # 431",1 µg/mL
same,MIC,"Klebsiella oxytoca, KUB No. 5644, AR Bank # 147",0.06 µg/mL
same,MIC,"Klebsiella oxytoca, KUB No. 5771, AR Bank # 375",0.12 µg/mL
same,MIC,"Klebsiella oxytoca, KUB No. 5776, AR Bank # 380",0.5 µg/mL
same,MIC,"Klebsiella ozaenae, KUB No. 5548, AR Bank# 51",16 µg/mL
same,MIC,"Klebsiella pnemnonine, KUB No. 5758, AR Bank # 362",64 µg/mL
same,MIC,"Klebsiella pneumoniae, KUB No. 55, AR Bank# 47",64 µg/mL
same,MIC,"Klebsiella pneumoniae, KUB No. 5531, AR Bank# 34",0.5 µg/mL
same,MIC,"Klebsiella pneumoniae, KUB No. 5536, AR Bank# 39",8 µg/mL
same,MIC,"Klebsiella pneumoniae, KUB No. 5537, AR Bank# 40",32 µg/mL
same,MIC,"Klebsiella pneumoniae, KUB No. 5538, AR Bank# 41",8 µg/mL
same,MIC,"Klebsiella pneumoniae, KUB No. 5540, AR Bank# 43",2 µg/mL
same,MIC,"Klebsiella pneumoniae, KUB No. 5541, AR Bank# 44",8 µg/mL
same,MIC,"Klebsiella pneumoniae, KUB No. 5543, AR Bank# 46",32 µg/mL
same,MIC,"Klebsiella pneumoniae, KUB No. 5546, AR Bank# 49",> 64 µg/mL
same,MIC,"Klebsiella pneumoniae, KUB No. 5603, AR Bank # 106",> 64 µg/mL
same,MIC,"Klebsiella pneumoniae, KUB No. 5604, AR Bank # 107",64 µg/mL
same,MIC,"Klebsiella pneumoniae, KUB No. 5606, AR Bank # 109",> 64 µg/mL
same,MIC,"Klebsiella pneumoniae, KUB No. 5609, AR Bank # 112",16 µg/mL
same,MIC,"Klebsiella pneumoniae, KUB No. 5610, AR Bank # 113",16 µg/mL
same,MIC,"Klebsiella pneumoniae, KUB No. 5612, AR Bank # 115",32 µg/mL
same,MIC,"Klebsiella pneumoniae, KUB No. 5614, AR Bank # 117",4 µg/mL
same,MIC,"Klebsiella pneumoniae, KUB No. 5617, AR Bank # 120",64 µg/mL
same,MIC,"Klebsiella pneumoniae, KUB No. 5622, AR Bank # 125",64 µg/mL
same,MIC,"Klebsiella pneumoniae, KUB No. 5623, AR Bank # 126",0.12 µg/mL
same,MIC,"Klebsiella pneumoniae, KUB No. 5626, AR Bank # 129",64 µg/mL
same,MIC,"Klebsiella pneumoniae, KUB No. 5632, AR Bank # 135",64 µg/mL
same,MIC,"Klebsiella pneumoniae, KUB No. 5635, AR Bank # 138",> 64 µg/mL
same,MIC,"Klebsiella pneumoniae, KUB No. 5636, AR Bank # 139",8 µg/mL
same,MIC,"Klebsiella pneumoniae, KUB No. 5637, AR Bank # 140",16 µg/mL
same,MIC,"Klebsiella pneumoniae, KUB No. 5638, AR Bank # 141",8 µg/mL
same,MIC,"Klebsiella pneumoniae, KUB No. 5639, AR Bank # 142",8 µg/mL
same,MIC,"Klebsiella pneumoniae, KUB No. 5640, AR Bank # 143",64 µg/mL
same,MIC,"Klebsiella pneumoniae, KUB No. 5642, AR Bank # 145",32 µg/mL
same,MIC,"Klebsiella pneumoniae, KUB No. 5643, AR Bank # 146",64 µg/mL
same,MIC,"Klebsiella pneumoniae, KUB No. 5645, AR Bank # 148",64 µg/mL
same,MIC,"Klebsiella pneumoniae, KUB No. 5649, AR Bank # 152",32 µg/mL
same,MIC,"Klebsiella pneumoniae, KUB No. 5650, AR Bank # 153",> 64 µg/mL
same,MIC,"Klebsiella pneumoniae, KUB No. 5655, AR Bank # 158",16 µg/mL
same,MIC,"Klebsiella pneumoniae, KUB No. 5657, AR Bank # 160",0.12 µg/mL
same,MIC,"Klebsiella pneumoniae, KUB No. 5757, AR Bank # 361",64 µg/mL
same,MIC,"Klebsiella pneumoniae, KUB No. 5759, AR Bank # 363",64 µg/mL
same,MIC,"Klebsiella pneumoniae, KUB No. 5760, AR Bank # 364",64 µg/mL
same,MIC,"Klebsiella pneumoniae, KUB No. 5772, AR Bank # 376",16 µg/mL
same,MIC,"Klebsiella pneumoniae, Klebsiella pneumoniae KUB No. 5784, AR Bank #438",64 µg/mL
same,MIC,"Klebsiella pneumoniae, Klebsiella pneumoniae KUB No. 5797, AR Bank #453",64 µg/mL
same,MIC,"Klebsiella pneumoniae, Klebsiella pneumoniae KUB No. 5809, AR Bank #504",0.5 µg/mL
same,MIC,"Klebsiella pneumoniae, Klebsiella pneumoniae KUB No. 5810, AR Bank #505",1 µg/mL
same,MIC,"Klebsiella pneumoniae, Klebsiella pneumoniae KUB No. 5811, AR Bank #506",4 µg/mL
same,MIC,"Klebsiella pneumoniae, Klebsiella pneumoniae KUB No. 5812, AR Bank #507",> 64 µg/mL
same,MIC,"Klebsiella pneumoniae, Klebsiella pneumoniae KUB No. 5827, AR Bank #522",32 µg/mL
same,MIC,"Klebsiella pneumoniae, Klebsiella pneumoniae KUB No. 5828, AR Bank #523",4 µg/mL
same,MIC,"Klebsiella pneumoniae, Klebsiella pneumoniae KUB No. 5829, AR Bank #524",32 µg/mL
same,MIC,"Klebsiella pneumoniae, Klebsiella pneumoniae KUB No. 5830, AR Bank #525",64 µg/mL
same,MIC,"Kluyvera ascorbata, KUB No. 5641, AR Bank # 144",2 µg/mL
same,MIC,"Morganella morganii, KUB No. 5554, AR Bank# 57",8 µg/mL
same,MIC,"Morganella morganii, KUB No. 5630, AR Bank # 133",64 µg/mL
same,MIC,"Morganella morganii, Morganella morganii KUB No. 5824, AR Bank #519",0.12 µg/mL
same,MIC,"Proteus mirabilis, KUB No. 5556, AR Bank# 59",8 µg/mL
same,MIC,"Proteus mirabilis, KUB No. 5652, AR Bank # 155",> 64 µg/mL
same,MIC,"Proteus mirabilis, KUB No. 5653, AR Bank # 156",2 µg/mL
same,MIC,"Proteus mirabilis, KUB No. 5656, AR Bank # 159",2 µg/mL
same,MIC,"Proteus mirabilis, KUB No. 5773, AR Bank # 377",16 µg/mL
same,MIC,"Proteus mirabilis, KUB No. 5775, AR Bank # 379",4 µg/mL
same,MIC,"Raoultella ornithinolvtica, KUB No. 5631, AR Bank # 134",0.5 µg/mL
same,MIC,"Salmonella enterica, Salmonella Senftenberg, KUB No. 5624, AR Bank # 127",32 µg/mL
same,MIC,"Serratia marcescens, KUB No. 5596, AR Bank # 99",0.25 µg/mL
same,MIC,"Serratia marcescens, KUB No. 5618, AR Bank # 121",0.12 µg/mL
same,MIC,"Serratia marcescens, KUB No. 5619, AR Bank # 122",0.5 µg/mL
same,MIC,"Serratia marcescens, KUB No. 5620, AR Bank # 123",0.25 µg/mL
same,MIC,"Serratia marcescens, KUB No. 5621, AR Bank # 124",0.5 µg/mL
same,MIC,"Serratia marcescens, KUB No. 5627, AR Bank # 130",0.12 µg/mL
same,MIC,"Serratia marcescens, KUB No. 5628, AR Bank # 131",0.5 µg/mL
same,MIC,"Serratia marcescens, Serratia marcescens KUB No. 5825, AR Bank #520",0.5 µg/mL
same,MIC,"Serratia marcescens, Serratia marcescens KUB No. 5826, AR Bank #521",16 µg/mL
same,MIC50,"carbapenemase-producing Enterobacterales, Metallo-β-lactamase (N = 47), read-out: MIC50",32 µg/mL
same,MIC90,"carbapenemase-producing Enterobacterales, Metallo-β-lactamase (N = 47), read-out: MIC90",> 64 µg/mL
